Values quoted from earlier work, collected in patent US20040242698A1, “Analeptic and antidepressant combinations” (Cephalon Inc., priority 2003, published 2004).

Columns and labels:
rats = conditions: Touret et al., 1995, Edgar and Seidel, 1997
cats = conditions: Lin et al., 1992
canines = conditions: Shelton et al., 1995
non-human primates = conditions: Hernant et al, 1991
[1] = tested on: English bulldog sleep disordered breathing model; conditions: sleep apnea model; Panckeri et al, 1996
narcoleptic canine = conditions: narcolepsy model; Shelton et al, 1995
[2] = tested on: major depressive disorder; conditions: at 6 weeks

NC(=O)C[S+]([O-])C(c1ccccc1)c1ccccc1 (stereo not shown) [Modafinil, 2-(benzhydrylsulfinyl) acetamide]
wakefulness (rats): promotes wakefulness | wakefulness (cats): promotes wakefulness | wakefulness (canines): promotes wakefulness | wakefulness (non-human primates): promotes wakefulness | wakefulness [1]: promotes wakefulness | wakefulness (narcoleptic canine): promotes wakefulness

CNCCC(Oc1ccc(C(F)(F)F)cc1)c1ccccc1 (stereo not shown) [fluoxetine]
response [2]: about 50%
